Measured values taken from EP2767273A1, “Death-associated protein kinases, inhibitors and activators thereof for use in pharmaceutical compositions and in predictive medicine” (UNIVERSITÄTSKLINIKUM ERLANGEN, priority 2013, dated 2014).

Columns and labels:
IL-6 [1] = assay: IL-6 secretion in HCEC cell culture supernatants (ELISA); assay type: cell-based, human; settings: HCEC cells
Method: (§1) HCEC cells were kindly provided by Professor Steinberg Pablo (Institute for Food Toxicology and Analytical Chemistry, University of Veterinary Medicine Hannover, Germany) and maintained as previously described.^31 After 24 hours of seeding, cells were either stimulated with 0.66 ng/ml TNF (ImmunoTools) for various time points. For inhibitor experiments cells were pre-incubated for one to two hours with the corresponding inhibitors.
IL-6 and IL-8 secretion was analyzed by ELISA according to the manufacturer's instructions (BD Biosciences; Heidelberg, Germany). […] After blocking (300 µl 3% BSA in PBS, 2 hours, RT) and washing (0.1% Tween in PBS, (PBS-T), 100 µl of undiluted or diluted supernatant was added and incubated (2 hours, RT or overnight 4°C). Thereafter, wells were washed and incubated (1.5 hours, RT) with detection antibody (1:250 diluted in 1% BSA in PBS-T) + enzyme reagent (Streptavidin-horseradish peroxidase conjugate; 1:250 diluted in detection antibody). After washing, TMB (1:1) substrate was added to each well and incubated in a dark for 20-30 minutes. Reaction was stopped with stop solution (100 µl 1 M H2SO4) and absorption was measured using spectrophotometer (Victor X3, Perkin-elmer) at a wavelength of 450 nm with a wavelength correction at 570 nm.

DAPK [2] = assay: DAPK protein expression/activation in HCEC cells (Western blotting); assay type: cell-based, human
Method: as §1
(§2) Protein concentration was measured in duplicates using Bio-rad Dc Protein Assay (BioRad Laboratories, Hercules, CA). Equal amounts of protein were separated by 10% or 12% SDS-PAGE using Laemmli buffer system. Proteins were transferred electrophoretically to nitrocellulose membrane (Millipore Corporation, Billerica, MA, USA) and detected as recently described^33 using following antibodies, anti-DAPK (BD Transduction Laboratories, Lexington NY), anti-pDAPK^S308 (Sigma), anti-STAT3, anti-pSTAT3^γ705, anti-caspase3 (Cell Signaling Technology Inc.), anti-ß-actin (Sigma), or anti-GAPDH (Abnova GmbH, Germany).
Silencing of DAPK expression in HCEC cells was performed by the siRNA technique according to the manufacturer's instructions (Dharmacon, Chicago, IL, USA). […] At the end of the incubation period supernatants and cells were harvested and stored at -80°C until analyzed further. The knockdown efficiency was determined by Western blotting.

IL-6 [3] = assay: IL-6 mRNA expression in HCEC cells (real time RT-PCR); assay type: cell-based, human; settings: AG490
Method: as §1
Expression of IL-6, IL-8, and DAPK mRNA were analyzed by real time RT-PCR. RNA isolation (mRNeasy RNA isolation kit) and cDNA synthesis (Quantitect reverse transcriptase kit) were performed according to the manufacturer's instructions (Qiagen, Hilden, Germany). 1 µl of cDNA was amplified in a thermal cycler (Biorad CFX-96) with corresponding primers in a total volume of 25 µl using Quantifast SYBR green kit (Qiagen) under the following conditions: 95°C for 5 minutes followed by 26-40 cycles of 95°C for 10 s and 60°C for 30 s. […] The results were expressed as fold induction compared to unstimulated cells after normalising to house-keeping gene. […]

STAT3 = STAT3 Y705 phosphorylation in HCEC cells (Western blotting); assay type: cell-based, human
Method: as §1, §2

DAPK [4] = assay: DAPK mRNA expression in HCEC cells (real time RT-PCR); assay type: cell-based, human; settings: for DAPK mRNA enhanced: 7 µM Stattic + TNF, relative to TNF treatment
Method: as §1
Expression of IL-6, IL-8, and DAPK mRNA were analyzed by real time RT-PCR. RNA isolation (mRNeasy RNA isolation kit) and cDNA synthesis (Quantitect reverse transcriptase kit) were performed according to the manufacturer's instructions (Qiagen, Hilden, Germany). 1 µl of cDNA was amplified in a thermal cycler (Biorad CFX-96) with corresponding primers in a total volume of 25 µl using Quantifast SYBR green kit (Qiagen) under the following conditions: 95°C for 5 minutes followed by 26-40 cycles of 95°C for 10 s and 60°C for 30 s. The following primers were used, forward and reverse respectively: DAPK, 5'-[…]-3' and 5'-GATCCCGAGTGGCCAAA-3'; IL-6, 5'-[…]-3' and 5'-[…]-3'; IL-8, 5'-[…]-3' and 5'-[…]-3'; ß2microglobulin (house-keeping gene), 5'-[…]-3' and 5'-[…]-3'; murine DAPK, 5'-[…]-3' and 5'-[…]-3'; murine GAPDH (house-keeping gene), 5'-[…] -3' and 5'-[…] -3'. The results were expressed as fold induction compared to unstimulated cells after normalising to house-keeping gene. All primers were purchased from metabion (metabion international AG, Martinsried, Germany).

AOM-DSS tumors = assay: AOM+DSS mouse model of colitis-associated tumors, treatment with DAPK-inhibitor; assay type: in vivo, mice
Method: as §2
Experimental colitis-associated tumorigenesis was performed as previously described.^43 In brief, 10mg/kg Azoxymethane (AOM; Sigma) was injected intraperitoneally into 6-8 week old C57BL/6J mice, followed by 3 cycles of DSS in drinking water. Each DSS-cycle was composed of DSS (2.5 % (w/v); MP Biomedicals) in drinking water for 7 days, followed by a recovery phase with regular drinking water for 14 days. All tumors were harvested at day 65-70.

[5] = AOM-DSS tumors, treated mice vs untreated control mice

N#C/C(=C\c1ccc(O)c(O)c1)C(=O)NCc1ccccc1 [AG490, Tyrphostin AG 490]
TNF-induced IL-6 secretion down-regulated (IL-6 [1]; AG490): 50%
TNF-induced DAPK protein expression (DAPK [2]; 20 µM AG490 + TNF): elevated
TNF-induced IL-6 mRNA expression down-regulated (IL-6 [3]): 50%
pSTAT3Y705 levels decreased (STAT3; 20 µM AG490 prior to TNF treatment): 35%
DAPK mRNA expression (DAPK [4]; 20 µM AG490 pre-treatment + TNF, after 72 hours): 3.3 fold

O=C1OC(c2ccccc2)=N/C1=C\c1cccnc1 [DAPK inhibitor, (4Z)-2-phenyl-4-(pyridine-3-ylmethylidene)-4,5-dihydro-1,3-oxazol-5-one]
TNF-induced IL-6 secretion (IL-6 [1]; 0.66 ng/ml TNF, 10 µM DAPK inhibitor, after 6 and 24 hours): significantly increased
STAT3Y705 phosphorylation (STAT3; 0.66 ng/ml TNF, 10 µM DAPK inhibitor, after 24, 48, and 72 hours): enhanced
tumors in the gut (endoscopy) (AOM-DSS tumors; AOM-DSS mice, with vs without DAPK-inhibitor): less and smaller tumors
tumor growth, atypia and architecture (immunohistochemical evaluation) (AOM-DSS tumors; AOM-DSS mice, untreated controls: non-invasive growth, low grade atypia, simple and tubular architecture): invasively growing, showed high grade atypia, and a complex, cribiform architecture
NFκB inhibitor plκß in tumors (Western Blotting) (AOM-DSS tumors; [5]): up-regulated
tumor suppressor p53 in tumors (Western Blotting) (AOM-DSS tumors; [5]): down-regulated

O=[N+]([O-])c1ccc2c(c1)S(=O)(=O)C=C2 [Stattic]
DAPK protein (DAPK [2]; 7 µM Stattic + TNF): enhanced
TNF-induced STAT3Y705 phosphorylation down-regulated (STAT3; 7 µM Stattic pre-treatment): up to 45%
DAPK mRNA enhanced (DAPK [4]; after 48 hours): 1-5 fold
DAPK mRNA enhanced (DAPK [4]; after 72 hours): 2.8 fold
